This passage reports inhibition results from ChEMBL document CHEMBL3804753, “Substituted quinolines as noncovalent proteasome inhibitors” (Bioorg Med Chem, 2016).

The source made the active and inactive calls. The calls are words filed in the database; no cut-off is given here.

The target of this test is T1, Proteasome Macropain subunit MB1 (Homo sapiens) (UniProt P28074).
T1 sequence (whole entry): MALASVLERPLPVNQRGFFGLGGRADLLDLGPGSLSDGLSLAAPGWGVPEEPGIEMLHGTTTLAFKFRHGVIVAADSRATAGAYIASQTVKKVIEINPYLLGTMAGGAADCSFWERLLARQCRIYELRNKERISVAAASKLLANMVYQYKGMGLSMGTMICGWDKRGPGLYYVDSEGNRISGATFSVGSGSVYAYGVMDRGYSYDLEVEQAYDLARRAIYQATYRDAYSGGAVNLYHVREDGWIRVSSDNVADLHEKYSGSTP
Nature of the test: Inhibition of human 20S proteasome chymotryptic-like activity using Suc-LLVY-AMC as substrate assessed as fluorescence quinching control by fluorescence assay.

Consider `Cc1cc(C)c2cc(-c3ccccc3)c(-c3ccccc3)nc2c1`, for which the inhibition entry was “inactive”.
